Blank lines part the entries; values can stand above or below the compound they belong to.
Experiments:
[1] = biological target: Dual specificity protein kinase CLK4 (Homo sapiens) (UniProt Q9HAZ1); assay: Inhibition of human recombinant CLK4 at 500 nM related to control ULK1
[2] = biological target: Insulin-like growth factor 1 receptor (Homo sapiens) (UniProt P08069); assay: Inhibition of human recombinant IGF1R at 500 nM related to control ULK1
[3] = biological target: T1, Serine/threonine-protein kinase TAO1 (Homo sapiens) (UniProt Q7L7X3); assay: Inhibition of human recombinant TAO1 at 15 nM related to control ULK1
T1 sequence (whole entry): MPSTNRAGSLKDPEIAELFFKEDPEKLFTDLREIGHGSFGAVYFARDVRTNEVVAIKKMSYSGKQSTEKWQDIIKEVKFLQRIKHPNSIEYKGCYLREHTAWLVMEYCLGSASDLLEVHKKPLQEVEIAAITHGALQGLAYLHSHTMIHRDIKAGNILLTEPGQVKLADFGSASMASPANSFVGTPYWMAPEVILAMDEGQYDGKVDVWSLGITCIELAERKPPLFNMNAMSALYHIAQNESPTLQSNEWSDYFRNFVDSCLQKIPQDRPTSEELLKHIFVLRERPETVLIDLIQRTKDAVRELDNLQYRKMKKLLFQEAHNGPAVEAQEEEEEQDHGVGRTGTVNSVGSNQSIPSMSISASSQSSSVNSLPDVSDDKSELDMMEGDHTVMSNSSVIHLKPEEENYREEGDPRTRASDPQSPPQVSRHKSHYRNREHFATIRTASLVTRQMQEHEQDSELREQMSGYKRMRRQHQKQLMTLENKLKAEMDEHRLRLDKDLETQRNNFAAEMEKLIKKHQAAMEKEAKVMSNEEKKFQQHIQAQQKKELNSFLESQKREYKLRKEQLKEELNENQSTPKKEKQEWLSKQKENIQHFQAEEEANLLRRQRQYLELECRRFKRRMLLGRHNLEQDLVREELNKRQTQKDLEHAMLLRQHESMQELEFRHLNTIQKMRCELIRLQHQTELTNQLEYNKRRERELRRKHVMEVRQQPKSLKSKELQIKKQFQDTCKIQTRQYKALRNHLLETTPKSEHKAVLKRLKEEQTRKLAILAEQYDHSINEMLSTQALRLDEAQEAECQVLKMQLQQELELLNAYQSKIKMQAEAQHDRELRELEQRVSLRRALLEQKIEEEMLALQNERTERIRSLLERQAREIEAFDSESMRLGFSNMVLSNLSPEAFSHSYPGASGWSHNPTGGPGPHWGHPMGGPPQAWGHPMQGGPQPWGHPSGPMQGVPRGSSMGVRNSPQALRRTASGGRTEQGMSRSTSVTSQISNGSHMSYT

[4] = biological target: Serine/threonine-protein kinase WNK3 (Homo sapiens) (UniProt Q9BYP7); assay: Inhibition of human recombinant Wnk3 at 15 nM in presence of ATP by radiometric assay relative to control
Serine/threonine-protein kinase WNK3 (Homo sapiens), sequence (Q9BYP7 whole entry): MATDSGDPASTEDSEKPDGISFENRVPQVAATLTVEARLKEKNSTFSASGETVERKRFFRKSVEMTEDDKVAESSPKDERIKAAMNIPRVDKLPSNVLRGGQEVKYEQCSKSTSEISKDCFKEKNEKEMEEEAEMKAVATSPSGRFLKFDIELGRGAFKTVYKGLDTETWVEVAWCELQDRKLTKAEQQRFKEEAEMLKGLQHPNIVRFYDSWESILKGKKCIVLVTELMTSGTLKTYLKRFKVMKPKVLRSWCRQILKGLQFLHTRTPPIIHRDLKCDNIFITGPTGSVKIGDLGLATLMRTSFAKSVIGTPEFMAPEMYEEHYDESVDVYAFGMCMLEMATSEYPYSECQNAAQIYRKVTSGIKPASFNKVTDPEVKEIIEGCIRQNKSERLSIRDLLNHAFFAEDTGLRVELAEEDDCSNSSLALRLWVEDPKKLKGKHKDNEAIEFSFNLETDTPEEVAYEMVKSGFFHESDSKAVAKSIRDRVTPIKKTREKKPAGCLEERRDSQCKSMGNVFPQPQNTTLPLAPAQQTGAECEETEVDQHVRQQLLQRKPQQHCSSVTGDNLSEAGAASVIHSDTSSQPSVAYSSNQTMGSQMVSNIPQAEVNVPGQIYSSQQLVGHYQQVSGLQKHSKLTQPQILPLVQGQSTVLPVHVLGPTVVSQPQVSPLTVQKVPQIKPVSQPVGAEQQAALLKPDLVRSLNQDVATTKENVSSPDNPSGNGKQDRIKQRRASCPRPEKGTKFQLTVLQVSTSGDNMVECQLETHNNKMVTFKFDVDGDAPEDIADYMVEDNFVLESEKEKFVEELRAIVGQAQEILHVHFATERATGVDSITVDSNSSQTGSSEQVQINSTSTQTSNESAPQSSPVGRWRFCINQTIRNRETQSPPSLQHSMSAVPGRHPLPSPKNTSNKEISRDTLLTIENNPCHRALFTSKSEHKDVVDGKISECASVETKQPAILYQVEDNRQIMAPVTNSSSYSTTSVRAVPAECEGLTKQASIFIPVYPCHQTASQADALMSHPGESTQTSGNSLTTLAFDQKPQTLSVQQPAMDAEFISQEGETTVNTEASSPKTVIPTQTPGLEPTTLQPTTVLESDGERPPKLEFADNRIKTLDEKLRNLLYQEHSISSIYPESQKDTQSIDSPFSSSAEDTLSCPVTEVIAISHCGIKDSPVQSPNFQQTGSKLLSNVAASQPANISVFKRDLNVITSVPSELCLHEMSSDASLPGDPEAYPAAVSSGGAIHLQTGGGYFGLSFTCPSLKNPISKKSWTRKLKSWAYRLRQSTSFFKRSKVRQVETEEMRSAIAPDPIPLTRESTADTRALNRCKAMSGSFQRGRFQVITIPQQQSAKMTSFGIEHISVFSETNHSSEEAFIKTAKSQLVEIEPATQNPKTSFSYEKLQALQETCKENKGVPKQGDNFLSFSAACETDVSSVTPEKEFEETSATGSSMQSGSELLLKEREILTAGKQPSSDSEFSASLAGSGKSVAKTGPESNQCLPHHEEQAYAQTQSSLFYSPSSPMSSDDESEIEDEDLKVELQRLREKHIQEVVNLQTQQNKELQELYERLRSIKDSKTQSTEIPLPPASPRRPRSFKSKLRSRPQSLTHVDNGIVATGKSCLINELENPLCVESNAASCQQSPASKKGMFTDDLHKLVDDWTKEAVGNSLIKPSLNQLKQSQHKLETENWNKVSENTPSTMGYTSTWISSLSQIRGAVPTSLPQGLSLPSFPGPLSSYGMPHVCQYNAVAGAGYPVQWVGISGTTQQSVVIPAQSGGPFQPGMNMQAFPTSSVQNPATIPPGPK

[5] = biological target: T2, cAMP-dependent protein kinase catalytic subunit PRKX (Homo sapiens) (UniProt P51817); assay: Inhibition of human recombinant PRKX at 40 nM in presence of ATP by radiometric assay relative to control
T2 sequence (whole entry): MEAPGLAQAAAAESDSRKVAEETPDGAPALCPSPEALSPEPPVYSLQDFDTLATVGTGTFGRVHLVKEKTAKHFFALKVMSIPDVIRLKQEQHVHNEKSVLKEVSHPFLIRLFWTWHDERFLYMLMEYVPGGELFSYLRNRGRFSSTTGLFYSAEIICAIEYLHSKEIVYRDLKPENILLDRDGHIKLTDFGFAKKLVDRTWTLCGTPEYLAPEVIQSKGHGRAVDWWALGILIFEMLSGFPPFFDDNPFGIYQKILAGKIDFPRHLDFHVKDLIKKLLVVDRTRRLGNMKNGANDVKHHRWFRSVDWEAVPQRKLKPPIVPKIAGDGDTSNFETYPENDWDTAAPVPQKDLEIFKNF

[6] = biological target: T3, Ephrin type-B receptor 4 (Homo sapiens) (UniProt P54760); assay: Inhibition of human recombinant EphB4 at 40 nM in presence of ATP by radiometric assay relative to control
T3 sequence (whole entry): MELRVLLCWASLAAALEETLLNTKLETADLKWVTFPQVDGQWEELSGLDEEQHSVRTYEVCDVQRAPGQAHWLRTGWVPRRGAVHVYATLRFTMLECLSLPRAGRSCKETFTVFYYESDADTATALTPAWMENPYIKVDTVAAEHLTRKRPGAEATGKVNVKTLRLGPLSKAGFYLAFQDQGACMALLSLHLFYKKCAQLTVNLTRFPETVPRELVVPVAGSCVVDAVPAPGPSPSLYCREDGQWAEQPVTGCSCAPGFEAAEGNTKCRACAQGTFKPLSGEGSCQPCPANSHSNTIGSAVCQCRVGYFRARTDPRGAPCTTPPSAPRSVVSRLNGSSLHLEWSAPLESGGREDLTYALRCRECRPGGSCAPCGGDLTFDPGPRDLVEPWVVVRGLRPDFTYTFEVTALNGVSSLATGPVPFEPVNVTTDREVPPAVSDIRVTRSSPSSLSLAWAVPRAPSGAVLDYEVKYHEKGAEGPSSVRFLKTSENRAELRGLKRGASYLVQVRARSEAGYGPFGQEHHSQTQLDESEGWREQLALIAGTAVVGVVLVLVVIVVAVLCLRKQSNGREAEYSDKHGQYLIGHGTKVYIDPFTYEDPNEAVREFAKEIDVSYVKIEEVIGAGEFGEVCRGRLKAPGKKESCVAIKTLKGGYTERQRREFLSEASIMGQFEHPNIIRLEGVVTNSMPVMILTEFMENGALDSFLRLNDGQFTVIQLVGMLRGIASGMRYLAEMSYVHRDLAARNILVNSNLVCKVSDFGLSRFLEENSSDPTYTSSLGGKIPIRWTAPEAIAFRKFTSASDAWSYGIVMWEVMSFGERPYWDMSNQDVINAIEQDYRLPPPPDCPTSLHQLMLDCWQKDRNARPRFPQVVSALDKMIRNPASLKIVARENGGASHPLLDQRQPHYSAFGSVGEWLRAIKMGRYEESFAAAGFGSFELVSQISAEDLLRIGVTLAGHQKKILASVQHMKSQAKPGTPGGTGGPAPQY

[7] = biological target: T4, Serine/threonine-protein kinase Sgk2 (Homo sapiens) (UniProt Q9HBY8); assay: Inhibition of human recombinant SGK2 at 40 nM related to control ULK1
T4 sequence (whole entry): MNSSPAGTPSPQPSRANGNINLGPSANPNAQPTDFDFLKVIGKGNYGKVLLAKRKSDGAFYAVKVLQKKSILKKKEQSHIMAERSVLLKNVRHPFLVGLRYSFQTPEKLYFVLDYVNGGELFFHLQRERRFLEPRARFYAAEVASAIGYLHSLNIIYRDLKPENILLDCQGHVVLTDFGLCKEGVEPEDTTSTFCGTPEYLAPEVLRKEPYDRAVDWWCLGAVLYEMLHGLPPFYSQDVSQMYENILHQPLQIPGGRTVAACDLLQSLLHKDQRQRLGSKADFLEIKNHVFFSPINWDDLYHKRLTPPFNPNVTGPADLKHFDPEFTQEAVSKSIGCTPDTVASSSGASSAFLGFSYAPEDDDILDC

Dual specificity protein kinase CLK4 (Homo sapiens), sequence (Q9HAZ1 whole entry, looked up): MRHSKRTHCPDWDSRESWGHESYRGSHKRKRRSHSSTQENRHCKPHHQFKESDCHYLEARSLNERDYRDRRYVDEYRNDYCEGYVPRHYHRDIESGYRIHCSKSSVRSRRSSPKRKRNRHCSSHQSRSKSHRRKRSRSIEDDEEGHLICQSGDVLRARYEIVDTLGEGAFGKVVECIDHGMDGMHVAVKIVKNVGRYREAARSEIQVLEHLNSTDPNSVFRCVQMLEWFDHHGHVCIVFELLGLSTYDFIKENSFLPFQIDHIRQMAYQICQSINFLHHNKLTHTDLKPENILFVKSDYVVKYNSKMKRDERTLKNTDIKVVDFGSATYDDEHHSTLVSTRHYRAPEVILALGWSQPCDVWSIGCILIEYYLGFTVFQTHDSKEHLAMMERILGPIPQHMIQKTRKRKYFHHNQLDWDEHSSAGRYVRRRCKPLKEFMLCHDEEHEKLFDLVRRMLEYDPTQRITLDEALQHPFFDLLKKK
Insulin-like growth factor 1 receptor (Homo sapiens), sequence (P08069 31-736 limits assumed): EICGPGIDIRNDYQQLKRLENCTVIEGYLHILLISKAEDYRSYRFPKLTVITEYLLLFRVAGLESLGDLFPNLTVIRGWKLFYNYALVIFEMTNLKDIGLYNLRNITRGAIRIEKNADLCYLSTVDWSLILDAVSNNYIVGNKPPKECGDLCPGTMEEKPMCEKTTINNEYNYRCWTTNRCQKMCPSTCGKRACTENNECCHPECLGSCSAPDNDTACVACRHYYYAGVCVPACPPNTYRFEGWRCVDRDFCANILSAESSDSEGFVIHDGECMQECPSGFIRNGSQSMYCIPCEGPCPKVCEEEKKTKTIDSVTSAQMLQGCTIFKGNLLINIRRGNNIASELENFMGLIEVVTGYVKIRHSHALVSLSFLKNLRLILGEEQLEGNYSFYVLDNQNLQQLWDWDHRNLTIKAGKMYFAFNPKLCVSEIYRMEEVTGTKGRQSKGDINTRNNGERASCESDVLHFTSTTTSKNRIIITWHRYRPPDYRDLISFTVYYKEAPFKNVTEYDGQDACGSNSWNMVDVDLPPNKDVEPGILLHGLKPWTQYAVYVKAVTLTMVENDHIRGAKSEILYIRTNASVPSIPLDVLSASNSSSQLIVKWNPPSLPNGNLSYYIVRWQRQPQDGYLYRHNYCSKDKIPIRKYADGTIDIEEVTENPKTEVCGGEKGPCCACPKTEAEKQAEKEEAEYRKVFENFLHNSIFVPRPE
Insulin-like growth factor 1 receptor (Homo sapiens), sequence (P08069 741-1367 limits assumed): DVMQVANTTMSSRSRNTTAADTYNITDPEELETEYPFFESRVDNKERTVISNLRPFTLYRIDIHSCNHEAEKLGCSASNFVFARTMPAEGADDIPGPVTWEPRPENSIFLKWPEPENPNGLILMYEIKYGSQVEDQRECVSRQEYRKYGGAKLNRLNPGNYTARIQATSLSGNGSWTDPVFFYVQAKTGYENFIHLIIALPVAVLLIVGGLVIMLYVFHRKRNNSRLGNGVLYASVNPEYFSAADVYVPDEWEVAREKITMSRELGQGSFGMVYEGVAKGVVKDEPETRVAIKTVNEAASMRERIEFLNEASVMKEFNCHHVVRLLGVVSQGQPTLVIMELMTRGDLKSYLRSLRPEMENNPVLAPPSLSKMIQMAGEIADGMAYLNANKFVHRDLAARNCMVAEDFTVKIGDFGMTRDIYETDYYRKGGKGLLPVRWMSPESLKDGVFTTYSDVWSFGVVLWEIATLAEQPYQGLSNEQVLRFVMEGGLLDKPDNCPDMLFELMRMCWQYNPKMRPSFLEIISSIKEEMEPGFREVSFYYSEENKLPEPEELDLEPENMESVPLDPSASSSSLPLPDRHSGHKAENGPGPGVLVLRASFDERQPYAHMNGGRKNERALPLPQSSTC

fold change (FC) [1]: 0.11 | fold change (FC) [2]: 0.04
Compound: CNC(=O)c1ccccc1Oc1nc(Nc2cc(OC)c(OC)c(OC)c2)ncc1Br

fold change (FC) [3]: 0 | inhibition [4]: 0%
Compound: CC(C)[C@H](NC(=O)c1cc(-c2cnn3cc(-c4ccc(OCCN5CCCCC5)cc4)cnc23)cs1)C(F)(F)F

inhibition [5]: 20% | inhibition [6]: 0% | fold change (FC) [7]: 0.16
Compound: O=C(N[C@@H](C1CC1)C(F)(F)F)c1cc(-c2cnn3cc(-c4ccc(F)cc4)cnc23)cs1

Source: ChEMBL document CHEMBL5653631, “A Potent and Selective ULK1 Inhibitor Suppresses Autophagy and Sensitizes Cancer Cells to Nutrient Stress” (iScience, 2018)
